According to ChEMBL document CHEMBL2424544, “Inhibitors of switch kinase 'spleen tyrosine kinase' in inflammation and immune-mediated disorders: a review” (Eur J Med Chem, 2013):

Target: Tyrosine-protein kinase SYK (Homo sapiens, UniProt P43405)
Experiment: Inhibition of spleen tyrosine kinase (unknown origin); call rule not given here

| IC50 (read-out: IC50) | IC50 | Structure (SMILES) |
| --- | --- | --- |
| > 10 µM | – | CNc1nc(NCCN)ncc1C(N)=O |
| > 10 µM | – | CNC(=O)c1cnc(NCCN)nc1Nc1cccc(C(F)(F)F)c1 |

More lines, now with the values behind:

| Structure (SMILES) | IC50 (read-out: IC50) | IC50 |
| --- | --- | --- |
| CN(C)C(=O)c1cnc(NCCN)nc1Nc1cccc(C(F)(F)F)c1 | > 10 µM | – |
| COc1ccc2c(c1)c(/C=C1\C(=O)Nc3ccc(S(=O)(=O)N(C)C)cc31)cn2C | – | Not Active |
| CN(C)CCN(C)c1ncc(C(N)=O)c(Nc2cccc(C(F)(F)F)c2)n1 | > 10 µM | – |
